Assay results: patent publication US7635663B2, “Method for thinning fruit blossoms using eugenol” (The United States of America as represented by the …, priority 2006, dated 2009)
Like-named read-outs stand apart in the source and are kept apart here.

What was measured:
[1] = test system: peach trees (Prunus persica L. 'Redhaven' on Lovell rootstock); type: in vivo; details: for Fruit (1 to 2 cm in diameter) one month after application / Fruit (2 to 4 cm in diameter) two months after application / Flowers without wilted pistils and stamens 24 hr after application: of 100 flowers; for Flowers without wilted pistils and stamens 24 hr after application: spring 2003
Method: Materials and methods: Initial work determined general foliar and blossom injury response to increasing rates of eugenol in apple and peach trees. Eugenol was prepared as a suspension in water and applied with a hand-held sprayer (Sure Shot, Milwaukee Sprayer Mfg. Co., Inc., Milwaukee, Wis.) to flowers to the point of drip. Spray was applied to peach trees (Prunus persica L. ‘Redhaven’ on Lovell rootstock) at 60 psi when air temperature was approximately 21° C. with sunny conditions. Naturally-derived eugenol, extracted from cinnamon (Cinnamomum zeylanicum) or clove (Syzgium aromaticum), was obtained from Citrus and Allied (Floral Park, N.Y.). Peach tree flowers were approximately 60% in bloom when eugenol was applied on 14 Apr. 2003. One tree received one application of each concentration of eugenol. One-hundred flowers per tree, uniformly distributed throughout the crown were selected for measurement 24 hr, 1 mo, and 2 mos after application. At 24 hr, flowers with wilted pistils and stamens were considered killed and nonviable. Surviving fruit were counted 1 and 2 mo after application. Peaches were harvested on 7 Aug. 2003 from each treated tree. Total fruit number and weight and size of individual fruit were measured.

[2] = test system: 'Bisbee Spur Delicious' on MM.111 apple trees; experiment: Apple blossom thinning with eugenol and ATS, 2004; type: in vivo, Malus domestica; details: for Average fruit weight (g) / Total yield per tree (no.) / Flower burn back (% of flowers injured): Apple 'Bisbee'; for Flower burn back (% of flowers injured): April 2004
Method: Each tree was an experimental unit, surrounded by buffer trees, with 4 single tree replications arranged in a completely randomized design.
Four branches per tree, each with 25 flowers, were measured; two branches opposite each other were perpendicular to the drive alley and the other two branches were opposite each other and parallel to the drive alley.

[3] = test system: 'Gala' on M.26 apple trees; type: in vivo, Malus domestica; details: for Fruit (no./tree) / Fruit weight (kg/tree) / Individual fruit weight: Apple 'Gala', 2005
Method: On Apr. […] Treatments were arranged in 4-tree plots and there were 4 blocks containing all 8 treatments. Data was collected from 2 trees per plot, so each treatment was an average of 8 trees. Data was analyzed by analysis of variance and Duncan's Multiple Range Test.

[4] = test system: apple trees (Malus domestica 'Ace Spur Red Delicious' on M.7 rootstock); type: in vivo; details: for Flowers without wilted pistils and stamens 24 hr after application / Fruit (1 to 2 cm in diameter) one month after application / Fruit (2 to 4 cm in diameter) two months after application: Apple; for Flowers without wilted pistils and stamens 24 hr after application: of 100 flower clusters, spring 2003; for Fruit (1 to 2 cm in diameter) one month after application / Fruit (2 to 4 cm in diameter) two months after application: same 100 flower clusters, five fruit each
Method: Eugenol was applied to apple trees (Malus domestica ‘Ace Spur Red Delicious’ on M.7 rootstock) on 23 Apr. 2003 when “king” blossoms had been fully opened and subtending flowers were just opening. Temperatures were 18° C. under partly sunny conditions. One-hundred five-cluster groups of flowers were evaluated for damage 24 hr after application. Surviving fruit from the original clusters were counted 1 and 2 mo after application. Apples were harvested on 17 Sep. 2003 from each treated tree. Total fruit number and weight and size of individual fruit were measured.

[5] = test system: 'Redhaven' on Lovell peach; experiment: Peach blossom thinning with different thinning agents, mist blower back pack sprayer, 2004; type: in vivo, Prunus persica
Method: In 2004, fewer concentrations of eugenol were tested in comparison with other chemical blossom thinners in apple and peach. […] 2004 with a pressurized power mist blower back pack sprayer. Peach trees had been planted in April 1997 with a 3-m spacing between trees. Treatments included eugenol and Matran® each applied at 1, 2, 4, and 8%. […] Each tree was an experimental unit, buffer trees surrounded each treated tree, and there were 5 replications arranged in a completely randomized design.
Response variables included (1) percent flowers wilted 24 hr after application based on a 100 flower (peach) or flower cluster (apple) sample per tree; (2) number apple fruit retained after June drop from the same 100-flower sample per tree; (3) number and weight of fruit per tree at harvest by size category; (4) visual estimation from two people of foliar and shoot damage. Four branches per tree, each with 25 flowers, were measured; two branches opposite each other were perpendicular to the drive alley and the other two branches were opposite each other and parallel to the drive alley.

C=CCc1ccc(O)c(OC)c1 [Eugenol, 2-methoxy-4-(2-propenyl)phenol]
Concentration at which flower injury was apparent ([1]; Peach flowers, 2003): 1.5% | Fruit (1 to 2 cm in diameter) one month after application ([1]; Peach, 0.5% active ingredient): 64% | Fruit (2 to 4 cm in diameter) two months after application ([1]; Peach, 0.5% active ingredient): 40% | Flowers without wilted pistils and stamens 24 hr after application ([1]; Peach, 0.5% active ingredient): 100% | Fruit (1 to 2 cm in diameter) one month after application ([1]; Peach, 1% active ingredient): 28% | Fruit (2 to 4 cm in diameter) two months after application ([1]; Peach, 1% active ingredient): 16% | Flowers without wilted pistils and stamens 24 hr after application ([1]; Peach, 1% active ingredient): 100% | Fruit (1 to 2 cm in diameter) one month after application ([1]; Peach, 1.5% active ingredient): 36% | Fruit (2 to 4 cm in diameter) two months after application ([1]; Peach, 1.5% active ingredient): 16% | Flowers without wilted pistils and stamens 24 hr after application ([1]; Peach, 1.5% active ingredient): 95% | Fruit (1 to 2 cm in diameter) one month after application ([1]; Peach, 2% active ingredient): 20% | Fruit (2 to 4 cm in diameter) two months after application ([1]; Peach, 2% active ingredient): 6% | Flowers without wilted pistils and stamens 24 hr after application ([1]; Peach, 2% active ingredient): 85% | Fruit (1 to 2 cm in diameter) one month after application ([1]; Peach, 4% active ingredient): 20% | Fruit (2 to 4 cm in diameter) two months after application ([1]; Peach, 4% active ingredient): 5% | Flowers without wilted pistils and stamens 24 hr after application ([1]; Peach, 4% active ingredient): 62% | Fruit (1 to 2 cm in diameter) one month after application ([1]; Peach, 6% active ingredient): 22% | Fruit (2 to 4 cm in diameter) two months after application ([1]; Peach, 6% active ingredient): 5% | Flowers without wilted pistils and stamens 24 hr after application ([1]; Peach, 6% active ingredient): 50% | Fruit (1 to 2 cm in diameter) one month after application ([1]; Peach, 8% active ingredient): 17% | Fruit (2 to 4 cm in diameter) two months after application ([1]; Peach, 8% active ingredient): 3% | Flowers without wilted pistils and stamens 24 hr after application ([1]; Peach, 8% active ingredient): 39% | Fruit (1 to 2 cm in diameter) one month after application ([1]; Peach, 10% active ingredient): 0% | Fruit (2 to 4 cm in diameter) two months after application ([1]; Peach, 10% active ingredient): 5% | Flowers without wilted pistils and stamens 24 hr after application ([1]; Peach, 10% active ingredient): 31% | Time after application until peach flowers began to appear bleached and leaf tips developed necrotic lesions ([1]; Peach, 2003): ≤ 1 h | Fruit or leaf injury ([1]; in vivo): No fruit or leaf injury | Phytotoxicity by 2 months after application ([1]; in vivo): no sign of eugenol-induced phytotoxicity | Average fruit weight (g) ([2]; rate 2%, 2004): 152 a g | Total yield per tree (no.) ([2]; rate 2%, 2004): 543 a no. | Flower burn back (% of flowers injured) ([2]; rate 2%): 45 a % | Average fruit weight (g) ([2]; rate 4%, 2004): 155 a g | Total yield per tree (no.) ([2]; rate 4%, 2004): 462 a no. | Flower burn back (% of flowers injured) ([2]; rate 4%): 50 a % | Average fruit weight (g) ([2]; rate 6%, 2004): 167 a g | Total yield per tree (no.) ([2]; rate 6%, 2004): 443 a no. | Flower burn back (% of flowers injured) ([2]; rate 6%): 53 a % | Effect on yield ([2]; Apple, 2004): did not affect yield | Fruit (no./tree) ([3]; thinner applied at 4%): 137 no./tree | Fruit weight (kg/tree) ([3]; thinner applied at 4%): 20.5 kg/tree | Individual fruit weight ([3]; thinner applied at 4%): 148 g | Fruit (no./tree) ([3]; thinner applied at 6%): 86 no./tree | Fruit weight (kg/tree) ([3]; thinner applied at 6%): 10.2 kg/tree | Individual fruit weight ([3]; thinner applied at 6%): 129 g | Leaf injury ([3]; in vivo): injury was superficial, did not persist, and was not observed within four weeks of application | Concentration at which flower injury was apparent ([4]; Apple flowers, 2003): 1.5% | Flowers without wilted pistils and stamens 24 hr after application ([4]; 0.5% active ingredient): 100% | Fruit (1 to 2 cm in diameter) one month after application ([4]; 0.5% active ingredient): 18% | Fruit (2 to 4 cm in diameter) two months after application ([4]; 0.5% active ingredient): 16% | Flowers without wilted pistils and stamens 24 hr after application ([4]; 1% active ingredient): 100% | Fruit (1 to 2 cm in diameter) one month after application ([4]; 1% active ingredient): 9% | Fruit (2 to 4 cm in diameter) two months after application ([4]; 1% active ingredient): 17% | Flowers without wilted pistils and stamens 24 hr after application ([4]; 1.5% active ingredient): 93% | Fruit (1 to 2 cm in diameter) one month after application ([4]; 1.5% active ingredient): 10% | Fruit (2 to 4 cm in diameter) two months after application ([4]; 1.5% active ingredient): 12% | Flowers without wilted pistils and stamens 24 hr after application ([4]; 2% active ingredient): 93% | Fruit (1 to 2 cm in diameter) one month after application ([4]; 2% active ingredient): 10% | Fruit (2 to 4 cm in diameter) two months after application ([4]; 2% active ingredient): 10% | Flowers without wilted pistils and stamens 24 hr after application ([4]; 4% active ingredient): 68% | Fruit (1 to 2 cm in diameter) one month after application ([4]; 4% active ingredient): 8% | Fruit (2 to 4 cm in diameter) two months after application ([4]; 4% active ingredient): 6% | Flowers without wilted pistils and stamens 24 hr after application ([4]; 6% active ingredient): 43% | Fruit (1 to 2 cm in diameter) one month after application ([4]; 6% active ingredient): 1% | Fruit (2 to 4 cm in diameter) two months after application ([4]; 6% active ingredient): 2% | Flowers without wilted pistils and stamens 24 hr after application ([4]; 8% active ingredient): 32% | Fruit (1 to 2 cm in diameter) one month after application ([4]; 8% active ingredient): 2% | Fruit (2 to 4 cm in diameter) two months after application ([4]; 8% active ingredient): 2% | Flowers without wilted pistils and stamens 24 hr after application ([4]; 10% active ingredient): 27% | Fruit (1 to 2 cm in diameter) one month after application ([4]; 10% active ingredient): 1% | Fruit (2 to 4 cm in diameter) two months after application ([4]; 10% active ingredient): 0% | Fruit or leaf injury ([4]; in vivo): no fruit or leaf injury | Phytotoxicity by 2 months after application ([4]; in vivo): no sign of eugenol-induced phytotoxicity | Rates at which fruit number was reduced [5]; 2004: higher than 2% | Average fruit weight (g) ([5]; rate 1%, 2004): 76 cde g | Total yield per tree (no.) ([5]; rate 1%, 2004): 684 a no. | Flower burn back (% of flowers injured) ([5]; rate 1%, April 2004): 15 b^a % | Average fruit weight (g) ([5]; rate 2%, 2004): 87 bcde g | Total yield per tree (no.) ([5]; rate 2%, 2004): 384 bc no. | Flower burn back (% of flowers injured) ([5]; rate 2%, April 2004): 27 ab % | Flower burn back (% of flowers injured) ([5]; rate 2%, April 2004, listed as eugenol): 27% | Average fruit weight (g) ([5]; rate 4%, 2004): 103 abc g | Total yield per tree (no.) ([5]; rate 4%, 2004): 470 abc no. | Flower burn back (% of flowers injured) ([5]; rate 4%, April 2004): 39 ab % | Flower burn back (% of flowers injured) ([5]; rate 4%, April 2004, listed as eugenol): 49% | Average fruit weight (g) ([5]; rate 8%, 2004): 112 ab g | Total yield per tree (no.) ([5]; rate 8%, 2004): 404 bc no. | Flower burn back (% of flowers injured) ([5]; rate 8%, April 2004): 49 a % | Flower burn back (% of flowers injured) ([5]; rate 8%, April 2004, listed as eugenol): approximately 50%
